{"source": "patent US5032577A", "about": "“Peptidylaminodiols” (Abbott Laboratories, priority 1987, dated 1991)", "note": "Where a name gives a salt, the structure may show the parent alone."}
{"target": "T1, human renal renin (Homo sapiens, UniProt P00797)", "T1 construct": "human renal renin, free from acid proteolytic activity; from tissue", "T1 sequence (P00797 67-406)": "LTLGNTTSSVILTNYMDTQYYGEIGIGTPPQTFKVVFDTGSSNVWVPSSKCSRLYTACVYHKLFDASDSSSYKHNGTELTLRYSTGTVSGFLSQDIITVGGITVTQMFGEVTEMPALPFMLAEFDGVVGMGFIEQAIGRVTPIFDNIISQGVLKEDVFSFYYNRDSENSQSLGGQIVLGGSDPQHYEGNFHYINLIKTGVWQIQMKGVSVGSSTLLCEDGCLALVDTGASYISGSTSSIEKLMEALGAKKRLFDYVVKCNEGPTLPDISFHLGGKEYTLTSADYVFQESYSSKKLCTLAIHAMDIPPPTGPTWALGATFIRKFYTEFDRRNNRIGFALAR", "assay": "Inhibition of human renal renin in vitro; angiotensin I formed measured by radioimmunoassay", "assay_type": "biochemical", "conditions": "not given", "units": {"IC50": "nM"}}
{"smiles": "CCOC(=O)N[C@@H](Cc1ccccc1)C(=O)N[C@@H](CC(C)C)C(=O)N[C@@H](CC1CCCCC1)[C@@H](O)[C@@H](O)CC", "note": "[Example 47, Ethoxycarbonyl-Phe-Leu Amide of 2(S)-Amino-1-cyclohexyl-3(R),4(S)-dihydroxyhexane]", "IC50": 1}
{"smiles": "CC(C)C[C@H](O)[C@H](O)[C@H](CC1CCCCC1)NC(=O)[C@H](Cc1c[nH]cn1)NC(=O)[C@H](Cc1ccccc1)NC(=O)COCC(=O)O", "note": "[Example 186, Carboxymethoxymethylcarbonyl-Phe-His Amide of 2(S)-Amino-1-cyclohexyl-3(R),4(S)-dihydroxy-6-methylheptane]", "IC50": 2}
{"smiles": "CC(C)C[C@H](O)[C@H](O)[C@H](CC1CCCCC1)NC(=O)[C@H](Cc1c[nH]cn1)NC(=O)[C@H](Cc1ccccc1)NC(=O)C1CCN(C(=O)OCc2ccccc2)CC1", "note": "[Example 67, Cbz-Isonipectoyl-Phe-His Amide of 2(S)-Amino-l-cyclohexyl-3(R),4(S)-dihydroxy-6-methylheptane]", "IC50": 0.8}
{"smiles": "CCOC(=O)[C@H](C)N[C@@H](Cc1ccccc1)C(=O)N[C@@H](Cc1c[nH]cn1)C(=O)N[C@@H](CC1CCCCC1)[C@@H](O)[C@@H](O)CC(C)C", "note": "[Example 185B, [l(S)-(Ethoxycarbonyl)-ethyl]-Phe-His Amide of 2(S)-Amino-1-cyclohexyl-3(R),4(S)-dihydroxy-6-methylheptane]", "IC50": 0.51}
{"smiles": "CC(C)C[C@H](NC(=O)[C@H](Cc1ccccc1)NC(=O)OCC(O)CO)C(=O)N[C@@H](CC1CCCCC1)[C@@H](O)[C@@H](O)CC(C)C", "note": "(stereo partly drawn) [Example 97, 2(R,S),3-Dihydroxypropyloxycarbonyl-Phe-Leu Amide of 2(S) -Amino-1-cyclohexyl-3(R),4(S)-dihydroxy-6-methylheptane]", "IC50": 0.3}
{"smiles": "CC(C)C[C@H](NC(=O)[C@H](Cc1ccccc1)NC(=O)CCCC(=O)O)C(=O)N[C@@H](CC1CCCCC1)[C@@H](O)[C@@H](O)CC(C)C", "note": "[Example 184, 4-Carboxybutyroyl-Phe-Leu Amide of 2(S)-Amino-l-cyclohexyl-3(R),4(S)-dihydroxy-6-methylheptane]", "IC50": 0.59}
{"smiles": "CC(C)C[C@H](O)[C@H](O)[C@H](CC1CCCCC1)NC(=O)[C@H](Cc1c[nH]cn1)NC(=O)[C@H](Cc1ccccc1)NC(=O)CCNC(=O)OCc1ccccc1", "note": "[Example 61, Cbz-β-Ala-Phe-His Amide of 2(S)-Amino-l-cyclohexyl-3(R),4(S)-dihydroxy-6-methylheptane]", "IC50": 0.55}
{"smiles": "CC(C)C[C@H](NC(=O)[C@H](Cc1ccccc1)NC(=O)OCCCOC(=O)CN)C(=O)N[C@@H](CC1CCCCC1)[C@@H](O)[C@@H](O)CC(C)C", "note": "[Example 93, H-Gly-Ester of the Resultant Compound of Example 91 (at 3-Hydroxypropyloxy Group)]", "IC50": 0.55}
{"smiles": "CC(C)C[C@H](NC(=O)[C@@H](N)Cc1ccccc1)C(=O)N[C@@H](CC1CCCCC1)[C@@H](O)[C@@H](O)CC(C)C", "note": "[Example 57, H-Phe-Leu Amide of 2(S)-Amino-l-cyclohexyl-3(R),4(S)-dihydroxY-6-methylheptane]", "IC50": 7.5}
{"smiles": "CC(C)C[C@H](NC(=O)[C@H](Cc1ccccc1)NC(=O)OCCCOC(=O)CNC(=O)OCc1ccccc1)C(=O)N[C@@H](CC1CCCCC1)[C@@H](O)[C@@H](O)CC(C)C", "note": "[Example 92, Cbz-Gly Ester of the Resultant Compound of Example 91 (at 3-Hydroxypropyloxy Group)]", "IC50": 0.5}
{"smiles": "CC(C)C[C@H](O)[C@H](O)[C@H](CC1CCCCC1)NC(=O)[C@H](Cc1c[nH]cn1)NC(=O)[C@H](Cc1ccccc1)NC(=O)CN(C)C(=O)OCc1ccccc1", "note": "[Example 63, Cbz-Sar-phe-His Amide of 2(S)-Amino-l-cyclohexyl-3(R),4(S)-dihydroxy-6-methylheptane]", "IC50": 0.45}
{"smiles": "CC(C)C[C@H](O)[C@H](O)[C@H](CC1CCCCC1)NC(=O)[C@H](Cc1c[nH]cn1)NC(=O)[C@H](Cc1ccccc1)NC(=O)OCc1ccccc1", "note": "[Example 83, Cbz-Phe-His Amide of 2(S)-Amino-l-cyclohexyl-3(R), 4(S)-dihydroxy-6-methylheptane]", "IC50": 0.6}
{"smiles": "CC(C)C[C@H](O)[C@H](O)[C@H](CC1CCCCC1)NC(=O)[C@H](Cc1c[nH]cn1)NC(=O)[C@H](Cc1ccccc1)NC(=O)CC(C)(C)N", "note": "[Example 75, H-[(β,β-di-Me)-β-Ala]-Phe-His Amide of 2(S)-Amino-1-cyclohexyl-3(R),4(S)-dihydroxy-6-methylheptane Diacetic Acid Salt]", "IC50": 0.4}
{"smiles": "CCOC(=O)N[C@@H](Cc1ccccc1)C(=O)N[C@@H](CC(C)C)C(=O)N[C@@H](CC1CCCCC1)[C@@H](O)[C@@H](O)CC(C)C", "note": "[Example 36, Ethoxycarbonyl-phe-Leu Amide of 2(S)-Amino-cyclohexyl-3(R),4(S)-dihydroxy-6-methylheptane]", "IC50": 0.4}
{"smiles": "CC(C)C[C@H](O)[C@H](O)[C@H](CC1CCCCC1)NC(=O)[C@H](Cc1c[nH]cn1)NC(=O)[C@H](Cc1ccccc1)NC(=O)c1cnccn1", "note": "[Example 87, (Pyrazin-2-yl-carbonyl)-Phe-His Amide of 2(S)-Amino-1-cyclohexyl-3(R),4(S)-dihydroxy-6-methylheptane]", "IC50": 0.55}
{"smiles": "CC(C)CC[C@H](O)[C@H](O)[C@H](CC1CCCCC1)NC(=O)[C@H](Cc1c[nH]cn1)NC(=O)[C@H](Cc1ccccc1)NC(=O)CC(C)(C)C", "note": "[Example 43, TBA-Phe-His Amide of 2(S)-Amino-1-cyclohexyl-3(R),4(S)-dihydroxy-7-methyloctane]", "IC50": 5}
{"smiles": "CC(C)C[C@H](O)[C@H](O)[C@H](CC1CCCCC1)NC(=O)[C@H](Cc1c[nH]cn1)NC(=O)[C@H](Cc1ccccc1)NC(=O)[C@@H](C)NC(=O)OCc1ccccc1", "note": "[Example 69, Cbz-D-Ala-Phe-His Amide of 2(S)-Amino-l-cyclohexyl-3(R), 4(S)-dihydroxy-6-methylheptane]", "IC50": 0.81}
{"smiles": "COC(=O)C(CCCCC(=O)N[C@@H](Cc1ccc(OC)cc1)C(=O)N[C@@H](CC(C)C)C(=O)N[C@@H](CC1CCCCC1)[C@@H](O)[C@@H](O)CC(C)C)NC(=O)OCc1ccccc1", "note": "(stereo partly drawn) [Example 192, 6-(BenzYloxYcarbonyl)amino-6-(methoxycarbonyl)hexanoyl-(4-OMe)Phe-Leu Amide of 2(S)-Amino-l-cyclohexyl-3(R),4(S)-dihydroxy-6-methylheptane]", "IC50": 0.61}
{"smiles": "CC(C)C[C@H](O)[C@H](O)[C@H](CC1CCCCC1)NC(=O)[C@H](Cc1c[nH]cn1)NC(=O)[C@H](Cc1ccccc1)NC(=O)C(C)(C)N", "note": "[Example 85, alpha-Aminoisobutyryl-Phe-His Amide of 2(S)-Amino-1-cyclohexyl-3(R),4(S)-dihydroxy-6-methylheptane]", "IC50": 0.4}
{"smiles": "CC(C)C[C@H](NC(=O)[C@H](Cc1ccccc1)NC(=O)Cc1c[nH]cn1)C(=O)N[C@@H](CC1CCCCC1)[C@@H](O)[C@@H](O)CC(C)C", "note": "[Example 88, (Imidazol-4-yl-acetyl)-Phe-Leu Amide of 2(S)-Amino-1-cyclohexyl-3(R),4(S)-dihydroxy-6-methylheptane]", "IC50": 0.6}
{"smiles": "COc1ccc(C[C@H](NC(=O)CCCCCN)C(=O)N[C@@H](Cc2c[nH]cn2)C(=O)N[C@@H](CC2CCCCC2)[C@@H](O)[C@@H](O)CC(C)C)cc1", "note": "[Example 173, 6-Aminohexanoyl-(4-methoxy)Phe-His Amide of (2S, 3R, 4S)-2-Amino-1-cyclohexyl-3,4-dihydroxy-6-methylheptane Diacetate Salt]", "IC50": 0.9}
{"smiles": "CC(C)C[C@H](O)[C@H](O)[C@H](CC1CCCCC1)NC(=O)[C@H](Cc1c[nH]cn1)NC(=O)C(CC(=O)N1CCOCC1)Cc1ccccc1", "note": "(single isomer, unassigned) [Example 143]", "IC50": 0.3}
{"smiles": "COC(=O)C(N)CCCCC(=O)N[C@@H](Cc1ccc(OC)cc1)C(=O)N[C@@H](CC(C)C)C(=O)N[C@@H](CC1CCCCC1)[C@@H](O)[C@@H](O)CC(C)C", "note": "(stereo partly drawn) [Example 193, 6-Amino-6-(methoxycarbonyl)hexanoyl-(4-OMe)Phe-Leu Amide of 2(S)-Amino-l-cyclohexyl-3(R),4(S)-dihydroxy-6-methylheptane]", "IC50": 0.74}
{"smiles": "CC(C)C[C@H](O)[C@H](O)[C@H](CC1CCCCC1)NC(=O)[C@H](Cc1cnc[nH]1)NC(=O)[C@H](Cc1ccccc1)NC(=O)N1CCOCC1", "note": "[Example 118, [(4-Morpholinyl)carbonyl]-phe-His Amide of 2(S)-Amino-1-cyclohexyl-3(R),4(S)-dihydroxy-6-methylheptane]", "IC50": 0.5}
{"smiles": "CC(C)C[C@H](O)[C@H](O)[C@H](CC1CCCCC1)NC(=O)[C@H](Cc1c[nH]cn1)NC(=O)C(CC(=O)N1CCOCC1)Oc1ccccc1", "note": "(single isomer, unassigned) [Example 141]", "IC50": 5.5}
{"target": "T1, human renal renin", "assay": "Inhibition of human renal renin in vitro; angiotensin I formed measured by radioimmunoassay", "assay_type": "biochemical", "conditions": "human renal renin free from acid proteolytic activity, renin substrate human angiotensinogen, 37° C., pH 6.0", "units": {"IC50": "nM"}}
{"smiles": "CC(C)(C)OC(=O)N[C@@H](Cc1ccccc1)C(=O)N[C@@H](Cc1c[nH]cn1)C(=O)N[C@@H](CC1CCCCC1)[C@@H](O)CO", "note": "[Example 6, Boc-Phe-His Amides of 3(S)-Amino-4-cyclohexyl-1,2(R)-dihydroxybutane]", "IC50": 50}
{"smiles": "CCOC(=O)N[C@@H](Cc1ccc(OC)cc1)C(=O)N[C@@H](Cc1c[nH]cn1)C(=O)N[C@@H](CC1CCCCC1)[C@@H](O)[C@@H](O)CC(C)C", "note": "[Example 22, Ethoxycarbonyl-(OCH3)Tyr-His Amide of 2(S)-Amino-1-cyclohexyl-3(R),4(S)-dihydroxy-6-methylheptane]", "IC50": 1.5}
{"smiles": "CC(C)C[C@H](O)[C@H](O)[C@H](CC1CCCCC1)NC(=O)[C@H](Cc1c[nH]cn1)NC(=O)[C@H](Cc1ccccc1)NC(=O)N1CCNCC1", "note": "[Example 124, [(1-Piperazinyl)carbonyl]-Phe-His Amide of 2(S)-Amino-1-cyclohexyl-3(R),4(S)-dihydroxy-6-methylheptane Bis-Acetic Acid Salt]", "IC50": 0.65}
